This passage reports IC50 results from ChEMBL document CHEMBL5356965, “Discovery and biological evaluation of novel dual PTP1B and ACP1 inhibitors for the treatment of insulin resistance” (Bioorg Med Chem, 2024).

Where only a bound is given, the exact number is not on record here.

The target of assay [1] is T1, Tyrosine-protein phosphatase non-receptor type 2 (Homo sapiens, UniProt P17706).
T1 sequence (P17706 whole entry): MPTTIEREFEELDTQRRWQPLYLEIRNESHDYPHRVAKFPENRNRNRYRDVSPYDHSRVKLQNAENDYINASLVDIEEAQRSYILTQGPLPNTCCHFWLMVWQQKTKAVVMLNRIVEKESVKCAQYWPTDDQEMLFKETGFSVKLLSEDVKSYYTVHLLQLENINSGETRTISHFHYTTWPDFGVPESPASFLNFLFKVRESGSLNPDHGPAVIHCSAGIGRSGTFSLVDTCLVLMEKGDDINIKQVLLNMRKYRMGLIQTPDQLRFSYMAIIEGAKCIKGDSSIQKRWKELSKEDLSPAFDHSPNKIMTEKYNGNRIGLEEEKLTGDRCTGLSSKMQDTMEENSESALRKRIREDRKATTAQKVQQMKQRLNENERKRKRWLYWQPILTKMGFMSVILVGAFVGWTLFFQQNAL
Description: Inhibition of recombinant human TCPTP

Assay [2] has as its target T2, Receptor-type tyrosine-protein phosphatase C (Homo sapiens, UniProt P08575).
T2 sequence (P08575 whole entry): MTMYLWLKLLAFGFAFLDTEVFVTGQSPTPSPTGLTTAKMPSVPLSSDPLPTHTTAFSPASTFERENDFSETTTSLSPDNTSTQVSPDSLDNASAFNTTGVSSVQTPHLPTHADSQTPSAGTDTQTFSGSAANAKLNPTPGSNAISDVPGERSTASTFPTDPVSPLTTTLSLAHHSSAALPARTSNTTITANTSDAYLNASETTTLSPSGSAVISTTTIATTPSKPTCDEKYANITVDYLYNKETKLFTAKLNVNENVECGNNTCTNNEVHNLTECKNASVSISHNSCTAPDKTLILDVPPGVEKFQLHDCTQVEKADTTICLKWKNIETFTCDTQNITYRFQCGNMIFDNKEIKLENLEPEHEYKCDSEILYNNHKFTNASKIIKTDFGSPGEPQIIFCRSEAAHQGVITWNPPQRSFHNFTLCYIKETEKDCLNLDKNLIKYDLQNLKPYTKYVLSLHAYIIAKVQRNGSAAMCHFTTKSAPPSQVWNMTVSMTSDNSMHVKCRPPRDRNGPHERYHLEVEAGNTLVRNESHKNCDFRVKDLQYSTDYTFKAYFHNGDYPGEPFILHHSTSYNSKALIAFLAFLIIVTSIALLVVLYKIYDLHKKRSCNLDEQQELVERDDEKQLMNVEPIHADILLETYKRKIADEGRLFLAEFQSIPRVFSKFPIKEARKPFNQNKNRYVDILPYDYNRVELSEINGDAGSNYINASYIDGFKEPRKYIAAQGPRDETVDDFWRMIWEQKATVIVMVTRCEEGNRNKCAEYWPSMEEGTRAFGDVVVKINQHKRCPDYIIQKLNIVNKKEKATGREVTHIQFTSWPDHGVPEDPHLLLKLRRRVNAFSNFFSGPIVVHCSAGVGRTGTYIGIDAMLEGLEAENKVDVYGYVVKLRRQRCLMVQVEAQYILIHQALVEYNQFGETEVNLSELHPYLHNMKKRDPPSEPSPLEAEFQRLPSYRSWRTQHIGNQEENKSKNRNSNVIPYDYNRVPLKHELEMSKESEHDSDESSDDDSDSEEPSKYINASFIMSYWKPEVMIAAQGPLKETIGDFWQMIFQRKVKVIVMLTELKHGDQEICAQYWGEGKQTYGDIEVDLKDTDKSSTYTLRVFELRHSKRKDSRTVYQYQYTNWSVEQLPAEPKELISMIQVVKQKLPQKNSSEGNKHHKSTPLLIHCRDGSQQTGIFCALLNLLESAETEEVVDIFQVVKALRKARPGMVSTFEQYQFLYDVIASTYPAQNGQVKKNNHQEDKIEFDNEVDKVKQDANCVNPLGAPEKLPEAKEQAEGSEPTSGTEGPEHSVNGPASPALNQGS
Description: Inhibition of recombinant human CD45

The target of assay [3] is T3, Low molecular weight phosphotyrosine protein phosphatase (Homo sapiens, UniProt P24666).
T3 sequence (P24666 whole entry): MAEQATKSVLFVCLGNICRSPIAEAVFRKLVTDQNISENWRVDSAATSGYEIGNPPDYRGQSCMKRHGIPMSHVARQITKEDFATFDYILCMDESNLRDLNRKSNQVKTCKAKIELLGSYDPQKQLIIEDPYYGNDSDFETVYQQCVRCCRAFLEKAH
The experiment in a line: Inhibition of recombinant human ACP1 using pNPP as substrate preincubated with compound for 10 mins followed by substrate addition and measured by absorbance based assay.

For assay [4], the target named is T4, Tyrosine-protein phosphatase non-receptor type 1 (Homo sapiens, UniProt P18031).
T4 sequence (P18031 whole entry): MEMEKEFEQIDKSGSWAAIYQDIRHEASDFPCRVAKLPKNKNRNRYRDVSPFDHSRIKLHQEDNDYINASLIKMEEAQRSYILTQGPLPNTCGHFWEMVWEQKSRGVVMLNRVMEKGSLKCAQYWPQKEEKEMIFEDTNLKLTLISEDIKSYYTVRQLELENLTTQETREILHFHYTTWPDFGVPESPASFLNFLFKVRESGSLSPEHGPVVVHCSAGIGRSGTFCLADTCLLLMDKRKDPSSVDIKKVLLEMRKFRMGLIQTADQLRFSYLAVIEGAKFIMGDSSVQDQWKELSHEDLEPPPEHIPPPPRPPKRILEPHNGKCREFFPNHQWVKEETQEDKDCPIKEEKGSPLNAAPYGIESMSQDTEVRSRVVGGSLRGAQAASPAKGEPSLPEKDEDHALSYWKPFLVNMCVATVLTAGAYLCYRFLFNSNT
Kind of assay: Inhibition of recombinant human PTP1B using pNPP as substrate preincubated with compound for 10 mins followed by substrate addition and measured by absorbance based assay.

A word on the IC50: it is the concentration needed to halve the response being measured. Turning to `COc1cc(/C=C2/NC(=O)N(Cc3ccc(C)cc3)C2=O)ccc1OCc1cccc(C(=O)O)c1`, the results for the IC50 in assay [1] and in assay [2] were 8.3 µM and over 40 µM, respectively.

Turning to `COc1cc(/C=C2/NC(=O)N(Cc3ccccc3)C2=O)cc(Cl)c1OCc1cccc(C(=O)O)c1`, the IC50 in assay [3] was 5.2 µM; in assay [4], 8.2 µM; in assay [1] it was 12.7 µM; in assay [2] it was over 40 µM.
